Key:
Experiment in all cases: relative viability (nuclei count vs DMSO), 5 days (fraction); higher = more cells survive
[1] = compound: Cn1cc(-c2cnn3c(N)c(Br)c([C@@H]4CCCNC4)nc23)cn1 + CC(C)C[C@H](NC(=O)[C@H](Cc1ccccc1)NC(=O)c1cnccn1)B(O)O [Bortezomib] (partner 0.002 µM)
Summary of the method: (§1)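 Relative viability divides the nuclei count in treated wells by that in vehicle wells. Lung cancer cell lines were seeded in 1536-well plates, dosed by pin tool the next day, and fixed and stained after 5 days in one step with final 0.05% Triton X-100, 1% formaldehyde and 1 ug/ml Hoechst. Dosing was a single drug or a fixed anchor-drug dose plus five library-drug doses (not always all listed) in √10 steps, and values are medians of duplicate plates imaged at 4×.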

[2] = compound: Cn1cc(-c2cnn3c(N)c(Br)c([C@@H]4CCCNC4)nc23)cn1 + CS(=O)(=O)CCNCc1ccc(-c2ccc3ncnc(Nc4ccc(OCc5cccc(F)c5)c(Cl)c4)c3c2)o1 [Lapatinib] (partner 2 µM)
Summary of the method: as §1

[3] = compound: Cn1cc(-c2cnn3c(N)c(Br)c([C@@H]4CCCNC4)nc23)cn1 + NC(=O)Nc1cc(-c2cccc(F)c2)sc1C(=O)N[C@H]1CCCNC1 [AZD7762] (partner 0.2 µM)
Summary of the method: as §1

[4] = compound: Cn1cc(-c2cnn3c(N)c(Br)c([C@@H]4CCCNC4)nc23)cn1 + Nc1ncn([C@H]2C[C@H](O)[C@@H](CO)O2)c(=O)n1 [Decitabine] (partner 2 µM)
Summary of the method: as §1

| Cell Line | relative viability ([1]; first compound 0.05 µM) | relative viability ([1]; first compound 0.1581 µM) | relative viability ([1]; first compound 0.5 µM) | relative viability ([1]; first compound 1.581 µM) | relative viability ([1]; first compound 5 µM) | relative viability ([2]; first compound 0.05 µM) | relative viability ([2]; first compound 0.1581 µM) | relative viability ([2]; first compound 0.5 µM) | relative viability ([2]; first compound 1.581 µM) | relative viability ([2]; first compound 5 µM) | relative viability ([3]; first compound 0.05 µM) | relative viability ([3]; first compound 0.1581 µM) | relative viability ([3]; first compound 0.5 µM) | relative viability ([3]; first compound 1.581 µM) | relative viability ([3]; first compound 5 µM) | relative viability ([4]; first compound 0.05 µM) | relative viability ([4]; first compound 0.1581 µM) | relative viability ([4]; first compound 0.5 µM) | relative viability ([4]; first compound 1.581 µM) | relative viability ([4]; first compound 5 µM) |
| --- | --- | --- | --- | --- | --- | --- | --- | --- | --- | --- | --- | --- | --- | --- | --- | --- | --- | --- | --- | --- |
| NCI-H1975 | 0.444 | 0.403 | 0.296 | 0.32 | 0.31 | 0.888 | 0.862 | 0.835 | 0.635 | 0.798 | 0.752 | 0.718 | 0.72 | 0.664 | 0.571 | 0.433 | 0.458 | 0.767 | 0.388 | 0.396 |
| NCI-H1993 | 1.09 | 1.16 | – | 0.931 | 0.846 | 0.634 | 0.858 | – | 0.739 | 0.759 | 0.642 | 0.84 | 0.616 | 0.733 | 0.664 | 0.602 | 0.49 | 0.621 | 0.55 | 0.524 |
| NCI-H2085 | 1.12 | 1.13 | 1.08 | 0.813 | 0.909 | 0.801 | 0.847 | 0.893 | 0.738 | 0.621 | 0.964 | 1.12 | 1.01 | 0.765 | 0.719 | 0.532 | 0.594 | 0.551 | 0.545 | 0.624 |
| NCI-H2087 | 0.893 | 0.876 | 0.872 | 0.622 | 0.911 | 1.29 | 1.17 | 0.996 | 1.21 | 0.985 | 1.32 | 1.38 | 1.41 | 1.22 | 1.42 | 0.258 | 0.25 | 0.231 | 0.331 | 0.347 |
| NCI-H2126 | 1.1 | 1.22 | 1.15 | 1.02 | 1.14 | 0.743 | 0.847 | 0.753 | 0.642 | 0.817 | 1.05 | 1.03 | 0.997 | 0.993 | 0.986 | 0.544 | 0.581 | 0.563 | 0.526 | 0.632 |
| NCI-H2347 | 0.839 | 1.01 | 0.747 | 0.727 | 0.869 | 0.919 | 1.03 | 1.05 | 0.902 | 0.645 | 0.77 | 0.635 | 0.76 | 0.65 | 0.532 | 0.611 | 0.649 | 0.637 | 0.662 | 0.621 |
| NCI-H2405 | 0.961 | 1.06 | 1.01 | 0.95 | 0.691 | 1.06 | 1.17 | 1.01 | 0.993 | 0.85 | 0.682 | 0.75 | 0.659 | 0.476 | 0.501 | 0.747 | 0.819 | 0.776 | 0.71 | 0.713 |
| NCI-H3122 | 1.12 | 1.02 | 1.04 | 1.11 | 1.05 | 1.1 | 1.07 | 1.07 | 1.04 | 1.05 | 0.981 | 1.07 | 1 | 0.883 | 1.16 | 0.427 | 0.454 | 0.329 | 0.413 | 0.511 |
| PC-3 [JPC-3] | 0.818 | 0.834 | 0.76 | 0.755 | 0.907 | 0.423 | 0.504 | 0.474 | 0.416 | 0.482 | 0.774 | 0.766 | – | 0.616 | 0.637 | 0.759 | 0.86 | – | 0.808 | 0.853 |
